The results in this text go back to patent US6287813A, “Antibiotic-based gene regulation system” (Cistronics Cell Technology GmbH, priority 1999, dated 2001).

This series deals with T1, PIT/PPIR system (Streptomyces coelicolor, UniProt Q9ADN3).
T1 construct: pMF156/pTWIN in CHO cells, PPIR-SEAP or GFP reporter
T1 sequence (Q9ADN3 1-252): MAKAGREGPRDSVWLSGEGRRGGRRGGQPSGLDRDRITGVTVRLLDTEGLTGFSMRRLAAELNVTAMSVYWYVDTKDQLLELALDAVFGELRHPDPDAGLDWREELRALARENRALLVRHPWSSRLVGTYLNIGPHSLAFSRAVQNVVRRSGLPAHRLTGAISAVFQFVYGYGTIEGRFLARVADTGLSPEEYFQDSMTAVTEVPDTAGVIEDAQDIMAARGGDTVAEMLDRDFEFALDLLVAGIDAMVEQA
In words: SEAP reporter assay, stable CHO-PIT1/CHO-PIT2 transiently transfected with pMF172. In kind it is cell-based. The protocol:
Chinese hamster ovary cells (CHO-K1, ATCC: CCL 61), Baby hamster kidney cells (BHK-21, ATCC: CRL-8544), and HeLa cells (ATCC: CRL-7923) as well as stable cell lines CHO-PIT1, CHO-PIT2, CHO-TWIN195, CHO-TWIN1108 and CHO-PIT1-SEAP were cultured as described before (Fussenegger et al., 1998, Nat. Biotechnol. 16,468-472) in the presence of appropriate antibiotics: G418 400 μg/ml; zeocin 100 μg/ml. Optimized CaPO4 protocols were used for high efficiency transient transfection of all cell lines (id). Transient transfected cells were routinely analyzed after 48 h for GFP or SEAP expression using fluorescence microscopy and p-nitrophenolphosphate-based light absorbance timecourse, respectively, as described before (Fussenegger et al., 1998, Nat. Biotechnol. 16, 468-472; Berger et al., 1988, Gene 66, 1-10 b). For construction of stable CHO-PIT and CHO-TWIN cell lines, CHO-K1 was cotransfected either with pMF156 or pTWIN1 and pSV2neo carrying the G418 resistance gene. CHO-PIT1-SEAP was constructed by cotransfection of pMF172 and pZeoSV2 (Invitrogen). For assessment of dose-response characteristics of PPIR -regulated gene expression, CHO-PIT1-SEAP were cultured at cell densities of 150,000/ml for 48 at various PI concentrations. The mixed populations were cloned using FACS-mediated single-cell-sorting (FACStar^Plus; Beckton Dickinson). Gel retardation assay were performed as described (Salah-Bey et al., 1995, supra) using Pip purified from an overproducing strain of E. coli. Pip (0.02 pmol) was titrated with a range of antibiotic concentrations in a reaction volume of 20 μl. Protein solutions were pre-incubated at room temperature for 15 min. in the absence or presence of PI or its derivative quinupristin in a buffer containing 10 mM Tris (pH 7.8), 10 mM MgCl2, 300 mM NaCl, 2 mM DTT and 10% glycerol. An EcoRI-HindII PPTR fragment (0.02 pmol) containing three Pip binding sites (radiolabelled using α-^32 P)dATP was added and incubated for 15 min. To minimize nonspecific protein binding and increase protein stability, 2 μg of poly dIdC and 20 μg BSA were included in the incubation mix. Protein-DNA complexes were separated on 5% polyacrylamide,TBE gels and visualized by autoradiography.
Five different sources of pristinamycin were used: The two therapeutic forms Pyostacin™ and Synercid™, pristinamycin discs, and the single compounds pristinamycin I (PI) and pristinamycin II (PII). Pyostacin™ pills (500 mg) were ground in a mortar and solubilized in DMSO or water at a stock concentration of 50 mg/ml. Synercid™ (RP 59500; Lot Nr. CB06253) was provided by Aventis in injection-ready vials containing 500 mg lyophilized antibiotic which was reconstituted in 5 ml of 5% glucose solution and frozen at -20° C. Individual pristinamycin compounds PI and PII (identical to virginiamycin M1 (VM1); Sigma ref. V2753) were solubilized in DMSO at a concentration of 50 mg/ml and kept at -20° C. Antibiotic discs containing 15 μg pristinamycin or virginiamycin (bioMerieux, ref. 54552; bioMerieux, ref. 54612) were soaked in 1 ml cell culture medium at 4i C for up to 24 h. Virginiamycin consists of virginiamnycin S1 (VS1), the PI analogue, and virginiamycin M1, which is identical in structure to PII (Barri re et al., 1994, supra). 2 μg/ml of streptogramin B was routinely used for regulation studies in cell culture. The concentration of individual streptogramin components was calculated based on their fixed 70:30 ratio (w/w; PII/VM1 /dalfopristin: PI/VS1 /quinupristin). For control experiments TET and doxycycline (DOX) were used either as discs (30 μg/disc, bioM.quadrature.rieux ref. 54882 (TET) and ref. 54172 (DOX)) or as powder (Sigma refs. T3383 and D9891).
Table 4: Pristinamycin I- (PI) dependent SEAP production of PIT- (PI-dependent transactivator) expressing stable cell lines CHO-PIT1 and CHO-PIT2 transiently transfected with the SEAP-encoding, PI-responsive reporter plasmid pMF172.
Table 5: Regulation potential of different streptogramins. […]
(In general: A reporter such as luciferase makes a cellular process visible.)

In the case of pristinamycin I [PI], the “Induction factor (ratio of SEAP activity without PI to SEAP activity with PI)” value came to 13 (CHO-PIT1) and 8 (CHO-PIT2). Further, the “SEAP Production (%)” value is, setting by setting: (CHO-PIT1 + pMF172, 48 h, 2 μg/ml of group B component, no streptogramin = 100) 8.06 ± 0.05%; (CHO-PIT1 + pMF172, +PI 2 μg/ml, -PI = 100) 7.50 ± 2.32%; (CHO-PIT2 + pMF172, +PI 2 μg/ml, -PI = 100) 12.7 ± 3.57%. Also, where the note is “CHO-PIT derivatives, repeated cycles of addition and withdrawal”, the “Reversibility of PI-responsive SEAP regulation” value was “fully reversible”.
